Values belong to the compound of their own block, whether it stands above or below them.
Key:
[1] = test system: Mus musculus; assay: Reduction of glucose excursion in C57BL6/N mouse at 3 mg/kg, po; assay type: functional; design: scale not given: the % may be the effect or the level left
[2] = target: Dipeptidyl peptidase 8 (Homo sapiens, UniProt Q6V1X1)
[3] = target: T1, Dipeptidyl peptidase 2 (Homo sapiens, UniProt Q9UHL4)
[4] = target: Dipeptidyl peptidase 9 (Homo sapiens, UniProt Q86TI2); assay: Inhibition of DPP9
[5] = species on record: Rattus norvegicus; assay: animal or person; conditions: Plasma, 6 h, read-out: INH
[6] = species on record: Rattus norvegicus; assay: animal or person; conditions: Plasma, 4 h, read-out: INH
[7] = species on record: Rattus norvegicus; assay: animal or person; conditions: Plasma, 0.5 h, read-out: INH
[8] = target: Dipeptidyl peptidase 4 (Homo sapiens, UniProt P27487)
[9] = target: T2, Dipeptidyl peptidase 4 (Rattus norvegicus, UniProt P14740)
[10] = target: Dipeptidyl peptidase 4 (Sus scrofa, UniProt P22411); assay: Inhibition of pig kidney DPP4
[11] = Oral bioavailability in cynomolgus monkey; assay type: ADME, organism-based, Macaca fascicularis; conditions: in vivo
[12] = target: T1, Dipeptidyl peptidase 2; assay: Inhibition of DPP7
[13] = species on record: Rattus norvegicus; assay: animal or person; conditions: Plasma, po, 10 h, read-out: INH
[14] = species on record: Rattus norvegicus; assay: animal or person; conditions: Plasma, po, 6 h, read-out: INH
[15] = test system: Rattus norvegicus; assay: Ex-vivo inhibition of DPP4 in rat plasma at 10 mg/kg, po after 12 hrs; assay type: functional
[16] = target: Dipeptidyl peptidase 4 (Mus musculus, UniProt P28843); assay: Inhibition of mouse DPP4
[17] = Selectivity for DPP4 over DPP8
[18] = Cmax in Wistar rat at 1 mg/kg after 10 mins; assay type: ADME, organism-based; design: dose 1 mg/kg; conditions: in vivo
[19] = target: T2, Dipeptidyl peptidase 4; remark: listed apart in the source
[20] = Stability in pH 7.4 buffer; assay type: physicochemical
[21] = Oral bioavailability in Sprague-Dawley rat at 10 mg/kg; assay type: ADME, organism-based; conditions: in vivo
[22] = Half life in Sprague-Dawley rat at 10 mg/kg, po; assay type: ADME, organism-based; design: dose 10 mg/kg, route oral; conditions: in vivo
[23] = target: T3, Prolyl endopeptidase FAP (Homo sapiens, UniProt Q12884); assay: Inhibition of FAP
T3 sequence (Q12884 whole entry): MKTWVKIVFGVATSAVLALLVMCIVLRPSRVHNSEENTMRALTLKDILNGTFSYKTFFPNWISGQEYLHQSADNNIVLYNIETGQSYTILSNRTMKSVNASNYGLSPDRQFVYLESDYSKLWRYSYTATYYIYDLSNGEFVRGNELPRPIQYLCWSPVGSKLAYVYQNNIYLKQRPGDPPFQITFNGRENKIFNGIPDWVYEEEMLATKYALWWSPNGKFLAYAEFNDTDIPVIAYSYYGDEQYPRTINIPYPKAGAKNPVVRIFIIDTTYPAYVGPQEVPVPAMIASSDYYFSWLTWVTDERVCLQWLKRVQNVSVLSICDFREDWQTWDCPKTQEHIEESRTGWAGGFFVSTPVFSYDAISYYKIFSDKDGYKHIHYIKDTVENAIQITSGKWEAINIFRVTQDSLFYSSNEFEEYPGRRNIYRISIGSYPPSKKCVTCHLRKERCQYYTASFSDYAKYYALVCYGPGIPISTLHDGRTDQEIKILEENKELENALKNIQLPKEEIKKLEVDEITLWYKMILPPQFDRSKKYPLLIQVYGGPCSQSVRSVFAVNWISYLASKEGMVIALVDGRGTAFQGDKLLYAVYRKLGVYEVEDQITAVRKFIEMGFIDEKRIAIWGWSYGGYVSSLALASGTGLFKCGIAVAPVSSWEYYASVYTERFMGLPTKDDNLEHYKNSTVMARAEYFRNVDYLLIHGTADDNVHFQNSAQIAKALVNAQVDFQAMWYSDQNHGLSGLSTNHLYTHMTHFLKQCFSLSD

[24] = species on record: Rattus norvegicus

Dipeptidyl peptidase 4 (Homo sapiens, UniProt P27487), sequence (P27487 whole entry): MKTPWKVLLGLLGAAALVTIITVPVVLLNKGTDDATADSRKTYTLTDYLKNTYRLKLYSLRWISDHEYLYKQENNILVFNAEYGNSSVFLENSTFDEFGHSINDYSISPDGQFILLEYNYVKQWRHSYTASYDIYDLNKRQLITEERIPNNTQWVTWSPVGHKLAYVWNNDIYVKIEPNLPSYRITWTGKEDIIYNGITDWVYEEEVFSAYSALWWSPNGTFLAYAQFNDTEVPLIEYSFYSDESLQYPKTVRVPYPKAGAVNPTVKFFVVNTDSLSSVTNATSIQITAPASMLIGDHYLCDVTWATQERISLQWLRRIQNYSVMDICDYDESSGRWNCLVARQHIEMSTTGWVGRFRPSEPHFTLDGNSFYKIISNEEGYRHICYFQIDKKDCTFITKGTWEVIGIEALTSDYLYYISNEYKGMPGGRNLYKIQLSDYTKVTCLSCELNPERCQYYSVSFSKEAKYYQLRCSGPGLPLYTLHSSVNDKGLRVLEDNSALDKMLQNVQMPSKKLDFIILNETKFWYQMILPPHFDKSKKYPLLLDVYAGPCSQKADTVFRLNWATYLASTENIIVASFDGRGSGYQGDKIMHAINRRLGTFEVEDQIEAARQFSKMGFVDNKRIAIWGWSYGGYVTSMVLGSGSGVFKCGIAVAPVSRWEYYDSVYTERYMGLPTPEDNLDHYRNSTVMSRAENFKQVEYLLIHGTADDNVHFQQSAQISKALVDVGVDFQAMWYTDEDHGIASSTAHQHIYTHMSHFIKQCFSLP
T2 sequence (P14740 whole entry): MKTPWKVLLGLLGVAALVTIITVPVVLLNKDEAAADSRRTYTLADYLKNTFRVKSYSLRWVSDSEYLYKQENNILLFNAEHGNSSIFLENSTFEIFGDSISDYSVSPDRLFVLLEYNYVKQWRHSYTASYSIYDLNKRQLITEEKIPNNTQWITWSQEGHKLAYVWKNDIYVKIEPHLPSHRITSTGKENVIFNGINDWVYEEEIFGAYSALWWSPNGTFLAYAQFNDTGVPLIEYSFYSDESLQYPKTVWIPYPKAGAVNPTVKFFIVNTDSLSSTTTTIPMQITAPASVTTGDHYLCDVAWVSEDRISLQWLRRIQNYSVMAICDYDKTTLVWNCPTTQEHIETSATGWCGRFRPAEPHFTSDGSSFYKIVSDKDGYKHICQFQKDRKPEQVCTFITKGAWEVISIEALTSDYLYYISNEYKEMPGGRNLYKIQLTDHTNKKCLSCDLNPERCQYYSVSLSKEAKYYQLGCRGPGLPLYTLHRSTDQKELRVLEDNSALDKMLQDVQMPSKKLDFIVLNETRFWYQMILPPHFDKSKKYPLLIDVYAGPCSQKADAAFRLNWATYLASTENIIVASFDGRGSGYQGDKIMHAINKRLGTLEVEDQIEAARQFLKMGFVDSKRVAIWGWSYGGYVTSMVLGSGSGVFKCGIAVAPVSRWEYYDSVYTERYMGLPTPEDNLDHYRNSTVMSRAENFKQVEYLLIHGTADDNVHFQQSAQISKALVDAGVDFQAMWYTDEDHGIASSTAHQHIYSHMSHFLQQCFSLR
Dipeptidyl peptidase 8, sequence (Q6V1X1 whole entry): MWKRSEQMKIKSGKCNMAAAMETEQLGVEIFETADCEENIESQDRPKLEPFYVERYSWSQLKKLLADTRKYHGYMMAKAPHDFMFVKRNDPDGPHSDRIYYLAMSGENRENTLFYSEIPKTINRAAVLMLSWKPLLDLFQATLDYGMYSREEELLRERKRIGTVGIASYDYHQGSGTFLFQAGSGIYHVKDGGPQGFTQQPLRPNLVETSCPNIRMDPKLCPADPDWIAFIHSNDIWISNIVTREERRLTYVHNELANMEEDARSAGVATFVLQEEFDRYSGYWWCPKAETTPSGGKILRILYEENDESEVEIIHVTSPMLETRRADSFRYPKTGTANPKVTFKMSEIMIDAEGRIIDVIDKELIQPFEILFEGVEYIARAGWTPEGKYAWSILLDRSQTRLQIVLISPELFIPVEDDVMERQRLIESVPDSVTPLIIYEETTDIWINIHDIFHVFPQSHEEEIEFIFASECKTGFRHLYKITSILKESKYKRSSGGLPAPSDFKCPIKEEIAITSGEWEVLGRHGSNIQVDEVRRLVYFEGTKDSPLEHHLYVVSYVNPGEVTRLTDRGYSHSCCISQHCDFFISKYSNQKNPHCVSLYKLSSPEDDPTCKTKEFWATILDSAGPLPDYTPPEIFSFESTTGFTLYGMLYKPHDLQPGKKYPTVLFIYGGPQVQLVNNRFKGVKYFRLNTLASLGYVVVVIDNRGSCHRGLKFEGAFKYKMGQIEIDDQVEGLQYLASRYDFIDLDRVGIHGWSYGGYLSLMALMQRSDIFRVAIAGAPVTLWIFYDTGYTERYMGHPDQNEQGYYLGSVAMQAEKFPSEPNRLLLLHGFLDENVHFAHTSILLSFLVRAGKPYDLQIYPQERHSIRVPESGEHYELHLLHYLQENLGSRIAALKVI
Dipeptidyl peptidase 9, sequence (Q86TI2 whole entry): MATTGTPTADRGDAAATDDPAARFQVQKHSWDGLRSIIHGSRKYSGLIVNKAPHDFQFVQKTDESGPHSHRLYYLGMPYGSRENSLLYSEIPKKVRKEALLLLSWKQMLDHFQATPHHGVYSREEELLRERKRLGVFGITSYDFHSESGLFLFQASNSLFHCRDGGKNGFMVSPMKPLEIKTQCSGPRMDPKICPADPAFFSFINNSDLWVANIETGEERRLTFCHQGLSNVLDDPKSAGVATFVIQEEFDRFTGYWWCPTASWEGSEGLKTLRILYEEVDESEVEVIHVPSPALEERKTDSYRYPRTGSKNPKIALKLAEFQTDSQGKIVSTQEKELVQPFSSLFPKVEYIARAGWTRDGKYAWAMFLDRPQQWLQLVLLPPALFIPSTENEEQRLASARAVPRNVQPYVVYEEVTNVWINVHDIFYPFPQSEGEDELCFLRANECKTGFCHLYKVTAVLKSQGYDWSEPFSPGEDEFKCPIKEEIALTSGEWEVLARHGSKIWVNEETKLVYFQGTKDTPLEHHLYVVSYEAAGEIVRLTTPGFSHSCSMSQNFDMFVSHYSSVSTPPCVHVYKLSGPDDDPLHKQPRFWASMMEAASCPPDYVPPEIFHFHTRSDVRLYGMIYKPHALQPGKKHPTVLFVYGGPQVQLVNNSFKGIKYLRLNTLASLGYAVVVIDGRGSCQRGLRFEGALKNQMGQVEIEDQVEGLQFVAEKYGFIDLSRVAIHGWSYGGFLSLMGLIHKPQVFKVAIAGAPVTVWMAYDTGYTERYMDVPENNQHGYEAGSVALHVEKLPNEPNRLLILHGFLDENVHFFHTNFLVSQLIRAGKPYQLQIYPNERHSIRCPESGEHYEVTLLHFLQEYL
Dipeptidyl peptidase 4 (Sus scrofa, UniProt P22411), sequence (P22411 whole entry): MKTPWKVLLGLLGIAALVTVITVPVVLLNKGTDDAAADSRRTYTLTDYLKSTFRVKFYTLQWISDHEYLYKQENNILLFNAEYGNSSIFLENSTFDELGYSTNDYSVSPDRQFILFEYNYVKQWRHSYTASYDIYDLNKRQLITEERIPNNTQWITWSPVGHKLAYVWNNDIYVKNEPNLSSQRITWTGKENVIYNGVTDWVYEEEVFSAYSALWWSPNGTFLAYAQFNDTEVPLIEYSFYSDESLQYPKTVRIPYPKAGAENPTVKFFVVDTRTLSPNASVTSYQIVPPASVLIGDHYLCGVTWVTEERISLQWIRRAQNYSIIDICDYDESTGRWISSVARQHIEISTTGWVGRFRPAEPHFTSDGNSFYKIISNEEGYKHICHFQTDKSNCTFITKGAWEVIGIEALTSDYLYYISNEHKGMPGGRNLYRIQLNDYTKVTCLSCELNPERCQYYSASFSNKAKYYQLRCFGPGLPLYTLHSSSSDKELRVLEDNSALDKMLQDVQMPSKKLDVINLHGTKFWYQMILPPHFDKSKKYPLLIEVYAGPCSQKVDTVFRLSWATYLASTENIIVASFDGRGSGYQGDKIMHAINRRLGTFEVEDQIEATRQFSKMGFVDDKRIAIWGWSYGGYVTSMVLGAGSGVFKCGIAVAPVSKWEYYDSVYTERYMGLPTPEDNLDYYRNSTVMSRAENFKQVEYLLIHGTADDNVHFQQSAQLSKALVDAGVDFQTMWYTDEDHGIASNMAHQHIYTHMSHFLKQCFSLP
Dipeptidyl peptidase 4 (Mus musculus, UniProt P28843), sequence (P28843 whole entry): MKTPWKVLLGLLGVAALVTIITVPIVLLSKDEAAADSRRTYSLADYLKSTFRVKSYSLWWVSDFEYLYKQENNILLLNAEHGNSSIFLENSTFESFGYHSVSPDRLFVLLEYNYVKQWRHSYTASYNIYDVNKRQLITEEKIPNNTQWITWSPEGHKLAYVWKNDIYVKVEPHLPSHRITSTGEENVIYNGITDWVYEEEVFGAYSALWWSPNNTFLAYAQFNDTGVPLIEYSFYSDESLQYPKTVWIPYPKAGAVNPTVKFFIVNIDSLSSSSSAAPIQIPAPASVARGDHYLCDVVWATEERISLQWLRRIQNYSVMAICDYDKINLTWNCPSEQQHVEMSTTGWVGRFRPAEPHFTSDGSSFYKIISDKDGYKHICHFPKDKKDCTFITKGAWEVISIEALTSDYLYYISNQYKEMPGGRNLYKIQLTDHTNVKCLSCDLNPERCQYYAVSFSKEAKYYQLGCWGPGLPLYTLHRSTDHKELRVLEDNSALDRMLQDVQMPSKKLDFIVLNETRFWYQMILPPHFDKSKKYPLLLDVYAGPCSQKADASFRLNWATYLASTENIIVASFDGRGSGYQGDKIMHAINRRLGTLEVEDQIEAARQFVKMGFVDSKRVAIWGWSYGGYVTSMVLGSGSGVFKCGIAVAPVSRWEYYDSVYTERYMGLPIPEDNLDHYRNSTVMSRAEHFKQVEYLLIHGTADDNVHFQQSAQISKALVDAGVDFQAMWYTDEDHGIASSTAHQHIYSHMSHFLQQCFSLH

Compound: N[C@H](C(=O)N1CC[C@H](F)C1)[C@H]1CC[C@H](NS(=O)(=O)c2ccc(F)cc2F)CC1
Activity [1]: 42%

Compound: COc1ccc(CS(=O)(=O)C(C)(C)[C@H](N)C(=O)N2C[C@@H](F)C[C@H]2C#N)cc1
inhibition in vivo at 1 mg/kg [5]: 84%

Compound: N#C[C@@H]1C[C@@H]2C[C@@H]2N1C(=O)[C@@H](N)C12CC3CC(CC(O)(C3)C1)C2 [SAXAGLIPTIN ANHYDROUS]
inhibition in vivo at 4 µmol/kg [6]: 87% | inhibition in vivo at 4 µmol/kg [7]: 87%

Compound: CC(N)/C(F)=C1\CCC[C@@H]1C#N (stereo partly specified)
IC50 [8]: 7690 nM

Compound: N#Cc1ccc(NCCNCC(=O)N2N=CCC2C#N)nc1 (stereo unspecified)
IC50 [9]: 780 nM | IC50 [10]: 490 nM

Compound: O=C(CNC12CC3CC(CC(C3)C1)C2)N1CCC[C@H]1B(O)O
IC50 [12]: 420 nM | IC50 [8]: 8 nM

Compound: Cc1ccc(O)c(C)c1[C@@H]1CN[C@H](C(=O)N2CCC[C@H]2C#N)C1
inhibition in vivo at 1 mg/kg [13]: 83% | inhibition in vivo at 1 mg/kg [14]: 95%

Compound: N#Cc1ccccc1Cn1c(N2CCC[C@@H](N)C2)nc2ccc(F)cc2c1=O
inhibition in vivo at 10 mg/kg [15]: 50%

Compound: CC(C)=CCN1C(C2CC[C@H]3NCC[C@@H]23)=NC2C1C(=O)N(CC(=O)c1ccccc1)C(=O)N2C (stereo partly specified)
IC50 [8]: 18 nM

Compound: CC1(NCC(=O)N2C[C@H](F)C[C@@H]2C#N)CCN(S(C)(=O)=O)CC1
IC50 [16]: 2.6 nM

Compound: COc1ccccc1N1CCc2nc(C)c(CN)c(-c3ccc(Cl)cc3Cl)c2C1=O
IC50 [8]: 2.28 nM

Compound: N#Cc1ccc(N[C@@H]2CN[C@H](C(=O)N3CCSC3)C2)nc1
IC50 [9]: 30.4 nM | bioavailability [21]: 83.9% | half-life [22]: 5.27 h

Compound: CC(c1nc(-c2ccc(S(C)(=O)=O)cc2Cl)no1)[C@H](N)C(F)=C1CCCC1.O=C(O)C(F)(F)F (stereo partly specified)
IC50 [24]: 62%

Compound: N[C@H](C(=O)N1CCCC1)[C@H]1CC[C@H](NS(=O)(=O)c2ccc(F)cc2F)CC1
Activity [1]: 36%

Compound: CC(N)/C(F)=C1\CCC[C@@H]1C#N (single isomer, unassigned; diastereomer 2)
IC50 [8]: 6030 nM

Now from value to compound:

IC50 [2]: > 100000 nM | IC50 [3]: > 100000 nM | IC50 [4]: > 100000 nM
Compound: CN(C)C(=O)[C@@H](c1ccc(C2=CN3N=CNC3C=C2)cc1)[C@H](N)C(=O)N1CC[C@H](F)C1 (stereo partly specified)

bioavailability [11]: > 90%
Compound: N#C[C@@H]1CCCN1C(=O)CNC12CC3CC(CC(O)(C3)C1)C2 [VILDAGLIPTIN]

Ki [3]: 125 nM
Compound: C[C@H](N)C(=O)N1CCC[C@H]1B(O)O

Selectivity ratio [17]: 53 | IC50 [8]: 251 nM
Compound: CC(C)(C)C(NC(=O)C[C@@H](N)C(=O)N1CCC[C@H]1C#N)c1ccccc1 (stereo partly specified)

Cmax [18]: 372 ng/mL
Compound: CC[C@H](C)[C@H](N)C(=O)N1C[C@@H](F)C[C@H]1C#N

IC50 [19]: 0.17 nM
Compound: N#Cc1ccc(N[C@@H]2CNC(C(=O)N3CCC[C@H]3C#N)C2)cc1C#N (stereo partly specified)

half-life [20]: > 48 h
Compound: N#C[C@@H]1CCCN1C(=O)[C@@H](N)C1CCCCC1

IC50 [2]: > 100000 nM | IC50 [3]: > 100000 nM | IC50 [23]: 21000 nM | IC50 [8]: 0.48 nM | IC50 [4]: > 86000 nM
Compound: CC(C)[C@H](Oc1ccc(CNC(=O)[C@@H]2CCCN2C(=O)C[C@H](N)Cc2cc(F)ccc2F)cc1)C(=O)O

Source: ChEMBL document CHEMBL1152762, “Medicinal chemistry approaches to the inhibition of dipeptidyl peptidase-4 for the treatment of type 2 diabetes” (Bioorg Med Chem, 2009)
